Starred links: 1 amine or outer side, 2 acyl side, 3 side chain; linkers in the order of their positions; H or OH if unused. Positions of bridges follow the written chain, without caps; N, C: chain ends. Residues, ends and D or L forms follow the SMILES beside them. Groups on a side chain read outwards from the residue. *: point of attachment. C18 diacid = O=C(O)CCCCCCCCCCCCCCCCC(=O)*; γGlu = O=C(O)[C@H](CCC(=O)[*:2])N[*:1]; AEEA = NCCOCCOCC(=O)O
What was measured:
[1] = Assay (III) ThT fibrillation assay for physical stability; type: physicochemical; conditions: for ThT pH 4.0 lag time: pH 4.0, ThT fibrillation assay
Summary of the method: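 Freshly prepared, pH-adjusted formulations with 1 μM ThT incubated at 37 °C under 960 rpm orbital shaking (1 mm), fluorescence (ex 444, em 485 nm) read every 20 min. […] Peptide content before and after measured by reverse-phase HPLC against pramlintide standard.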

[2] = tested on: ad libitum fed rat; test: Assay (I) efficacy testing on appetite (food intake) using an ad libitum fed rat model; type: in vivo, Sprague Dawley (SD) rats; conditions: 3 nmol/kg
Summary of the method: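 Ad libitum fed Sprague Dawley rats, 200-250 g, singly housed on reversed light cycle, got one ip, po or sc dose of 0.01-3 mg/kg just before lights off; groups of 5-8 with vehicle control. Food intake recorded hourly for 7 h, then at 24 h and sometimes 48 h; Grubbs outliers excluded.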

ThT pH 4.0 lag time (physical stability in fibrillogenesis assay) ([1]; pH 4.0) [h] | ThT pH 4.0 lag time [1] [h] | Structure (SMILES) | Food intake reduction 0-24 h 3 nmol/kg (%) [2] [%] | Food intake reduction 24-48 h 3 nmol/kg (%) [2] [%]
>45 | >45 | CC[C@H](C)[C@H](NC(=O)[C@@H]1CCCN1C(=O)CNC(=O)[C@H](Cc1ccccc1)NC(=O)[C@H](CC(N)=O)NC(=O)[C@H](CC(N)=O)NC(=O)[C@H](CO)NC(=O)[C@H](CO)NC(=O)[C@H](Cc1c[nH]cn1)NC(=O)[C@H](Cc1c[nH]cn1)NC(=O)[C@H](CC(C)C)NC(=O)[C@H](Cc1ccccc1)NC(=O)[C@H](CCC(=O)O)NC(=O)[C@H](C)NC(=O)[C@H](CC(C)C)NC(=O)[C@H](CCCNC(=N)N)NC(=O)[C@H](CCC(N)=O)NC(=O)[C@@H](NC(=O)[C@H](C)NC(=O)[C@@H]1CSSC[C@H](NC(=O)[C@H](CCCCN)NC(=O)CC[C@H](NC(=O)CCCCCCCCCCCCCCCCC(=O)O)C(=O)O)C(=O)N[C@@H](CC(N)=O)C(=O)N[C@@H]([C@@H](C)O)C(=O)N[C@@H](C)C(=O)N[C@@H]([C@@H](C)O)C(=O)N1)[C@@H](C)O)C(=O)N[C@@H](CC(C)C)C(=O)N1CCC[C@H]1C(=O)N1CCC[C@H]1C(=O)N[C@H](C(=O)N[C@@H](CC(N)=O)C(=O)N[C@H](C(=O)NCC(=O)N[C@@H](CO)C(=O)N[C@@H](Cc1c[nH]cn1)C(=O)N[C@H](C(=O)N[C@@H](Cc1ccc(O)cc1)C(N)=O)[C@@H](C)O)C(C)C)[C@@H](C)O [Example 59, N-alpha-[(S)-4-Carboxy-4-(17-carboxyheptadecanoylamino)butyryl]-[Glu14,His17,His35]-pramlintide] ({C18 diacid-γGlu}-KCNTATCATQRLAEFLHHSSNNFGPILPPTNVGSHTY-NH2; disulfide 2-7) | 59 | 27
 | >45 | CC[C@H](C)[C@H](NC(=O)[C@H](CCCCNC(=O)COCCOCCNC(=O)COCCOCCNC(=O)CC[C@H](NC(=O)CCCCCCCCCCCCCCCCC(=O)O)C(=O)O)NC(=O)CNC(=O)[C@H](Cc1ccccc1)NC(=O)[C@H](CC(N)=O)NC(=O)[C@H](CC(N)=O)NC(=O)[C@H](CO)NC(=O)[C@H](CO)NC(=O)[C@H](Cc1c[nH]cn1)NC(=O)[C@H](Cc1c[nH]cn1)NC(=O)[C@H](CC(C)C)NC(=O)[C@H](Cc1ccccc1)NC(=O)[C@H](CCC(=O)O)NC(=O)[C@H](C)NC(=O)[C@H](CC(C)C)NC(=O)[C@H](CCCNC(=N)N)NC(=O)[C@H](CCC(N)=O)NC(=O)[C@@H](NC(=O)[C@H](C)NC(=O)[C@@H]1CSSC[C@H](NC(=O)[C@@H](N)CCCCN)C(=O)N[C@@H](CC(N)=O)C(=O)N[C@@H]([C@@H](C)O)C(=O)N[C@@H](C)C(=O)N[C@@H]([C@@H](C)O)C(=O)N1)[C@@H](C)O)C(=O)N[C@@H](CC(C)C)C(=O)N1CCC[C@H]1C(=O)N1CCC[C@H]1C(=O)N[C@H](C(=O)N[C@@H](CC(N)=O)C(=O)N[C@H](C(=O)NCC(=O)N[C@@H](CO)C(=O)N[C@@H](CC(N)=O)C(=O)N[C@H](C(=O)N[C@@H](Cc1ccc(O)cc1)C(N)=O)[C@@H](C)O)C(C)C)[C@@H](C)O [Example 73, N-epsilon25-[2-(2-{2-[2-(2-{2-[(S)-4-Carboxy-4-(17-carboxyheptadecanoylamino)butyrylamino]ethoxy}ethoxy)acetylamino]ethoxy}ethoxy)acetyl]-[Glu14,His17,Lys25]-pramlintide] (H-KCNTATCATQRLAEFLHHSSNNFGK([AEEA-AEEA-γGlu-C18 diacid])ILPPTNVGSNTY-NH2; disulfide 2-7; N-terminus assumed) | 29 | 2

Source: US8741836B2, “Polypeptides” (Novo Nordisk A/S, priority 2011, dated 2014)
